{
  "source": "patent US7629317B2",
  "about": "“Control of growth and repair of gastro-intestinal tissues by gastrokines and inhibitors” (The University of Chicago, priority 2001, dated 2009)",
  "key": {"Streptococcus pneumoniae": {"test_system": "Streptococcus pneumoniae", "test": "Growth of other bacteria and fungi", "format": "cell-based"}, "occludin": {"test_system": "occludin", "test": "Occludin in mouse colonic mucosa in vivo (immunoblot of NP-40-insoluble fraction)", "conditions": "listed as AMP peptide", "procedure": "To look for a systemic effect of treatment with AMP peptide during the development of DSS colitis, body weight was measured. During the first 4 days of DSS administration, body weight changed little in peptide- or vehicle-treated mice. Then DSS was discontinued, the animals were given water to drink (day 0; FIG. 27, right panel), and measurements of weight were continued. […] To better understand how AMP peptide could exert these salutary effects on hematochezia and weight loss in DSS colitis, studies were performed to determine if observations in cultures of C2 cells were also relevant in vivo. Because DSS treatment appeared to injure barrier function in monolayer cultures of C2 cells, assessed as a decrease in TER (FIG. 22) and reduced occludin in the detergent-insoluble fraction (FIG. 36), a question was whether DSS might adversely affect the content of this TJ protein in vivo. Mice (n=10) were given DSS (3%) or water to drink. Four days later animals were killed, the contents of the colon lumen including blood were washed out, and the mucosa was inspected. The colonic epithelial surface of mice given DSS appeared largely intact with no obvious ulcerations or denuded areas. Surface cells of visibly intact mucosa were then collected by scraping with a glass slide. Occludin levels in the NP-40-insoluble fraction were assessed by immunoblotting. […]"}, "[1]": {"test_system": "occludin, ZO-1, ZO-2, claudin-5, E-cadherin, JAM", "test": "Accumulation of tight and adherens junction proteins in C2 cells (immunoblot of insoluble fraction, confocal microscopy)", "format": "cell-based, human", "procedure": "To find out how the peptide exerts its cytoprotective effect, C2 cell monolayers were treated with AMP peptide, and oxidant injury was induced with monochloramine 18 hours later. Changes in the levels of specific tight junction (TJ) proteins were checked. Cells were lysed, and proteins of the insoluble/particulate fraction were studied by immunoblotting. […] This observation represents the first evidence that AMP peptide enhances accumulation of specific TJ proteins in colonic epithelial cells. […] To carry out this experiment, C2 cells were exposed to AMP peptide for different periods of time, the NP-40-insoluble fraction was obtained, Western blots were prepared, and the amount of each immunoreactive protein was quantified. A 65% increase in immunoreactivity of each protein compared to control was detected for occludin after 2 hr, and for ZO-1 at 8 hr. Hsc73, which is constitutively expressed in these cells, was not altered by exposure to AMP peptide for up to 18 hr.\nConfluent monolayers of C2 cells were treated with AMP peptide or vehicle for 8 hr. Cells were then collected, proteins in the NP-40-insoluble fraction were separated by SDS-PAGE, immunoblots were prepared, and the relative amounts of immunoreactive proteins were compared by densitometric analysis. […] These changes appear relatively specific for occludin, ZO-1, ZO-2, claudin-5, E-cadherin, and JAM because they were not observed for several other proteins localized in the TJ (claudin-1, claudin-2), adherens junction (β-catenin), plasma membrane (Na-K-2Cl cotransporter, α or β subunit of Na-K-ATPase), or cytosol (Rho A, hsc73).\nTo better understand the mechanism(s) by which AMP peptide enhances accumulation of TJ-associated proteins, experiments were performed to determine whether the peptide exerted its effect at the apical or basolateral surface of C2 cells. Monolayers of C2 cells were grown on Transwell filters, AMP peptide (8:g/ml) was added to the apical or basolateral compartment of the Transwell, and cells were harvested 8 hr later. The NP-40-insoluble fraction was obtained, its proteins separated, and immunoblots were prepared."}, "HAE cells": {"test_system": "HAE cells", "test": "Growth of human antrum epithelial (HAE) cells (cell count 4 days later)", "format": "cell-based", "procedure": "To measure growth (left panel), HAE cells were plated in 60-mm dishes. Peptide 77-97 (8 μg/ml), or EGF (50 ng/ml), or both were added to the medium and the number of cells counted 4 days later. […] Values are means±SE for 3 cultures. To measure migration (right panel), cells were grown in 60-mm dishes to prepare a confluent monolayer. The medium was aspirated and replaced with fresh medium containing 0.01% calf serum (CS). The monolayer was mechanically wounded by scraping with a razor blade. Detached cells were removed by aspirating medium, and rinsing the remaining cells twice with fresh medium containing 0.01% CS. Fresh medium (5 ml) containing CS (0.01%) and insulin (100 U/L) was added to wounded cultures. Either peptide 77-97 (8 μg/ml), EGF (50 ng/ml), or both were added to duplicate cultures. Migration was assessed at 24, 48 and 72 hr after wounding by measuring the distance (in mm) that cells had migrated from the wound edge using a microscope eyepiece reticle (10-mm long; 0.1-mm markings). Migrating cells at 12 randomly chosen sites along a 0.25-mm stretch of the wound edge were measured at 40-fold magnification. Migration at 2 different sites was measured for each of 2 separate wounds made in each culture. Values are the mean distance cells moved into the denuded area from the edge of 4 different wounds in 2 cultures±SE.\nTo characterize the capacity of gastric and intestinal cells to respond to AMP-18, AGS gastric adenocarcinoma cells, HAE human gastric antrum mucosa primary cultures transformed with SV40 large T antigen, rat diploid small intestinal epithelial cells of the IEC-6 (FIG. 15) and IEC-18 lines, NCI N-87 gastric carcinoma cells, and SK-GT5 gastroesophageal adenocarcinoma cells were studied; human WI-38 fibroblasts and HeLa cells served as non-GI control cell lines. Mitogenesis was assayed by performing cell counts 3 to 4 days after exposing cells to the agent of interest, trypsinizing the culture to prepare single cells, and confirming this while counting them in a hemocytometer."}},
  "note": "Entries after “also recorded” stand apart in the source; their conditions may differ.",
  "data": [
    {"sequence": "LDALVKEKKLQGKGPGGPPPK [97–117, peptide 77-97 of the mature protein, same as 97-117 of the human precursor]", "values": [
      {"measurement": "growth of Streptococcus pneumoniae", "setting": "Streptococcus pneumoniae", "result": "did not alter the growth"},
      {"measurement": "amount of β-catenin in colonic mucosal epithelial cells", "setting": "occludin", "result": "did not alter; also recorded: does not alter"},
      {"measurement": "changes in claudin-1, claudin-2, β-catenin, Na-K-2Cl cotransporter, Na-K-ATPase subunits, Rho A, hsc73", "setting": "[1]", "result": "not observed"},
      {"measurement": "increase in accumulation of junctional adhesion molecule (JAM)", "setting": "[1]; 48 and 72 hr vs 0 hr", "result": "~50", "unit": "%"},
      {"measurement": "increased accumulation of E-cadherin", "setting": "[1]; 8 hr", "result": 2, "unit": "fold"},
      {"measurement": "increased accumulation of occludin, ZO-1, ZO-2 and claudin-5", "setting": "[1]; 8 hr, densitometric analysis", "result": "3- to 6 fold"},
      {"measurement": "accumulation of occludin and ZO-1 (specificity)", "setting": "[1]; 8 hr, peptides 8 μg/ml, EGF 50 ng/ml", "result": "enhanced accumulation"},
      {"measurement": "ZO-1 and occludin levels in the insoluble fraction versus vehicle", "setting": "[1]; after oxidant injury", "result": "two-fold"},
      {"measurement": "accumulation of occludin and claudin-5, basolateral exposure", "setting": "[1]; basolateral compartment of Transwell, 8 hr", "result": "increased accumulation"},
      {"measurement": "Hsc73 expression", "setting": "[1]; exposure up to 18 hr", "result": "not altered"},
      {"measurement": "increase in occludin immunoreactivity compared to control", "setting": "[1]; non-injured cells, after 2 hr", "result": 65, "unit": "%"},
      {"measurement": "increase in ZO-1 immunoreactivity compared to control", "setting": "[1]; non-injured cells, at 8 hr", "result": 65, "unit": "%"},
      {"measurement": "occludin immunoreactivity versus vehicle-treated control cells", "setting": "[1]; peptide 8 μg/ml, 18 hr, listed as AMP peptide", "result": "double"},
      {"measurement": "proliferation together with EGF", "setting": "HAE cells; peptide 77-97 8 μg/ml + EGF 50 ng/ml", "result": "additive"},
      {"measurement": "proliferation of HAE cells (in words)", "setting": "HAE cells; peptide 77-97 8 μg/ml, EGF 50 ng/ml, 4 days", "result": "stimulated proliferation"}
    ]}
  ]
}
